Results as given in US20220401481A1, “DOSING REGIMENS FOR THE MOBILIZATION OF HEMATOPOIETIC STEM AND PROGENITOR CELLS” (Magenta Therapeutics, Inc., priority 2019, published 2022).
“And” between values parts separate entries of the source, which are not always exact repeats. Identical values can stand only once. Like-named read-outs stand apart in the source and are kept apart here.

Tests used:
[1] = system: CD34+ cells; details: historical plerixafor alone data, Devine et al., Blood 2008 (n=25); cited from earlier work
[2] = system: T cells, B cells and NK cells; details: cited from earlier work
[3] = system: CD34+CD90+CD45RA− cells; assay: Phase 1 clinical trial: mobilization of CD34+CD90+CD45RA− cells into peripheral blood (flow cytometry); details: plerixafor alone
[4] = system: CD34+ cells; assay: Phase 1 clinical trial: mobilization of CD34+ cells into peripheral blood (multicolor flow cytometry); details: for % ≥40/μL: plerixafor
[5] = system: hematopoietic stem and progenitor cell mobilization; details: described in U.S. Pat. No. 6,447,766; cited from earlier work
[6] = Chen et al., 2019, plerixafor N = 50+, median yield of 2 LP
[7] = Devine et al, 2008, median yield of 1 LP, plerixafor N = 24, G-CSF N = 8
[8] = Part C, first day, combination (0.03 or […]) 8 patients, plerixafor alone
[9] = Part C, placebo + plerixafor on Day 2 (n=2)

In the case of `c1cc(CN2CCCNCCNCCCNCC2)ccc1CN1CCCNCCNCCCNCC1` [Plerixafor, 1,1′-[1,4-phenylenebis(methylene)]-bis-1,4,8,11-tetra-azacyclotetradecane], the “Patients with peak CD34+ ≥20 cells/μL” value [1] is listed as 28%, the “Patients with peak CD34+ ≥40 cells/μL” value [1] is listed as 4% and the “CD3+ in graft, Median (range)” value [2, 6] is listed as 6.0 (2.7-13.0) ×10^8/kg. The “CD4+ in graft, Median (range)” value [2, 6] was 3.6 (2.0-9.4) ×10^8/kg, the “CD8+ in graft, Median (range)” value [2, 6] was 2.2 (0.5-5.0) ×10^8/kg and the “CD19+ in graft, Median (range)” value [2, 6] was 1.5 (0.2-7.4) ×10^8/kg. The “CD34+ in graft, Median (range)” value [2, 6] was 4.7 (0.9-9.6) ×10^6/kg, the “CD56+ in graft, Median (range)” value [2, 6] was 0.4 (0.0-1.1) ×10^8/kg and the “CD3+ in graft, Median (range)” value [2, 7] was 4.6 (1.5-7.8) ×10^8/kg. For the same compound, the “CD4+ in graft, Median (range)” value [2, 7] was 3.2 (1-5.7) ×10^8/kg, the “CD8+ in graft, Median (range)” value [2, 7] was 1.3 (0.4-3.4) ×10^8/kg and the “CD34+ in graft, Median (range)” value [2, 7] was 2.9 (1.2-6.3) ×10^6/kg. The “CD56+ in graft, Median (range)” value [2, 7] was 0.3 (0.1-1.0) ×10^8/kg, the “CD19+ in graft, Median (range)” value ([2]; Devine et al, 2008, median yield of 1 LP, plerixafor N = 24) was 1.0 (0.2-2.4) ×10^8/kg and the “CD34+CD90+CD45RA− cells, median peak” value [3] was 8 cells/μL. The “CD34+ AUC2-8h Median (range)” value ([4]; 2-8 hours post plerixafor dose, plerixafor alone) was 102 (61-341), the “% ≥40/μL” value ([4]; Part B) was 21% (3/16) and the “Peak CD34+ (#/μL) Median (range)” value ([4]; Part B, plerixafor (placebo + plerixafor) on Day 1) was 26 (13-78) #/μL. For the same compound, the “Number of patients with peak CD34+ count of at least 20 cells per microliter” value [4, 8] was “none”, the “Number of patients with peak CD34+ count of at least 40 cells per microliter” value [4, 8] was “none” and the “Peak CD34+ (#/μL) Median (range)” value [4, 9] was 17 (12-22) #/μL. The “Percent ≥20/μL” value [4, 9] was 50 (1/2) %, the “Peak CD34+ (#/μL) Median (range)” value ([4]; Part C, plerixafor (placebo + plerixafor) on Day 1 (n=2)) was 18 (16-20) #/μL and the “% ≥40/μL” value ([4]; Part C, first day (n=2)) was 0% (0/2). For the same compound, the “% ≥40/μL” value ([4]; Pooled B + C) was 14% (2/14), the “Peak CD34+ (#/μL) Median (range)” value ([4]; Pooled B + C, plerixafor (placebo + plerixafor) on Day 1) was 20 (13-78) #/μL and 23 (13-78) #/μL and the “Peak CD34+/μL (FC vs. baseline) Median (range)” value ([4]; plerixafor alone) was 15 (8-62) fold. The “Tmax of peak CD34+ level Median (range)” value ([4]; plerixafor alone) was 8 (3-12) h, the “Patients with peak CD34+ ≥20 cells/μL” value ([4]; plerixafor alone (n=14)) was 50% and the “Patients with peak CD34+ ≥40 cells/μL” value ([4]; plerixafor alone (n=14)) was 14%.

In the case of “Gro-β T N65D: Gro-β T with aspartic acid in place of asparagine at position 65, SEQ ID NO: 4 [reference compound]”, the “Potency (hematopoietic stem and progenitor cell mobilization) relative to Gro-β T” value [5] is given as “substantially greater than that of Gro-β T”.
